Earlier results on 2 molecules are cited in patent US20060189586A1, “Pharmaceutical compositions comprising active vitamin D compounds” (priority 2003, published 2006).

The conditions of the series: in vivo.

Regarding `C=C1/C(=C\C=C2/CCC[C@]3(C)C([C@H](C)CC#CC(C)(C)O)=CC[C@@H]23)C[C@@H](O)C[C@@H]1O` [Ro23-7553], the “Hypercalcemic effect compared to calcitriol” value is recorded as “reduced hypercalcemic effect”. With `C=C1/C(=C/C=C2\CCC[C@]3(C)C([C@H](C)CC#CC(O)(C(F)(F)F)C(F)(F)F)=CC[C@@H]23)C[C@@H](O)C[C@@H]1O` [Ro24-5531], the “Hypercalcemic effect compared to calcitriol” value is reported as “reduced hypercalcemic effect”.
